In patent publication US20110294782A1, “SMALL MOLECULE PAK INHIBITORS” (Massachusetts Institute of Technology, priority 2006, published 2011):
pKd: −log10 of the molar value. Read-outs that look alike come from different tables or passages of the source.

Columns and labels:
[1] = biological target: T1, PAK1 (Homo sapiens, UniProt Q13153); assay: Competitive binding assay (Ambit), phage-displayed PAK vs immobilized staurosporine bait
T1 construct: full length PAK or a PAK catalytic domain expressed on the surface of T7 bacteriophage; host or cells: T7 phage (modified T7 Select 10-3) grown in a BL21-derived E. coli host
From the text: (§1) Binding data were fit to the equation:
(§2) PFU=L+((H−L)*(Kd(test)/(Kd(test)+[candidate])))

[2] = biological target: T2, PAK7 (Homo sapiens, UniProt Q9P286); assay: as above; conditions: 25° C., 1 hour, 0.1% DMSO, read-out: Kd value, Test PAK Inhibitor Affinity Assay
T2 construct: full length PAK or a PAK catalytic domain expressed on the surface of T7 bacteriophage; host or cells: T7 phage (modified T7 Select 10-3) grown in a BL21-derived E. coli host
From the text: as §1, §2

[3] = biological target: T3, PAK2 (Homo sapiens, UniProt Q13177); assay: as above
T3 construct: full length PAK or a PAK catalytic domain expressed on the surface of T7 bacteriophage; host or cells: T7 phage (modified T7 Select 10-3) grown in a BL21-derived E. coli host
From the text: as §1, §2

[4] = biological target: T4, PAK6 (Homo sapiens, UniProt Q9NQU5); assay: as above; conditions: 25° C., 1 hour, 0.1% DMSO, read-out: Kd value, Test PAK Inhibitor Affinity Assay
T4 construct: full length PAK or a PAK catalytic domain expressed on the surface of T7 bacteriophage; host or cells: T7 phage (modified T7 Select 10-3) grown in a BL21-derived E. coli host
From the text: as §1, §2

[5] = biological target: PAK4 (Homo sapiens, UniProt O96013); assay: biochemical
PAK4, sequence (O96013 whole entry): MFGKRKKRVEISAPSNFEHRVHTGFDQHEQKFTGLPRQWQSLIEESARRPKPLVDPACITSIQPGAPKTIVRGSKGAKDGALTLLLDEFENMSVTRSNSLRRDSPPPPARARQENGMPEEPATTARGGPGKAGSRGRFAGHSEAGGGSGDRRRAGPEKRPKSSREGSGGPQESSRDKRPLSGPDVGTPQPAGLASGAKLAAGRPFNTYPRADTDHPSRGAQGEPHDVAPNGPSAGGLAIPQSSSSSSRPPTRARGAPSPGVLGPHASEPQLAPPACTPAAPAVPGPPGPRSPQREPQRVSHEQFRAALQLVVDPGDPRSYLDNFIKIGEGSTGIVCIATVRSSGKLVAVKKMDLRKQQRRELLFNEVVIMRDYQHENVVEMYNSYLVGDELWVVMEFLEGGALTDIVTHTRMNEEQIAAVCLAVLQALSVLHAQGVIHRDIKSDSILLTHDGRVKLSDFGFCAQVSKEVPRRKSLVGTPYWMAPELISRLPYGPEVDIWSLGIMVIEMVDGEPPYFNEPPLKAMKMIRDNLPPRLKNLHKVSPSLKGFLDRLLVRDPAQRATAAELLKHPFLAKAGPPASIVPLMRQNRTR
Method: When these three components are combined, the test substance is tested for its ability to compete, in a concentration-dependent manner, with the immobilized kinase bait probe for binding for binding to the phage-PAK catalytic domain. Afterwards, the amount of bait probe-bound phage-PAK can be detected, for example, by a phage plaque assay and/or quantitative PCR of phage DNA. The amount of probe-bound phage-PAK is inversely proportional to the affinity of the candidate inhibitor for the kinase and can be used in determining a Kd value of the test substance for the PAK catalytic site, as described below. […]
T7 kinase-tagged phage strains were grown in parallel in 24- or 96-well blocks in an E. coli host derived from the BL21 strain. […] Phage titer in the eluates was measured by standard plaque assays or by quantitative PCR. […]
Kd (probe) is the binding constant for the interaction between the kinase and the immobilized ligand, [Probe] is the concentration of the immobilized ligand [test] ½ is the concentration of the free candidate compound at the midpoint of the transition. […] Under these conditions, binding constants measured for the interaction between kinases and candidate compounds (Kd (test)) are therefore independent of the affinity of the immobilized ligand for the kinase (Kd (probe)). […]

T1 sequence (Q13153 whole entry, the tested form may be a part): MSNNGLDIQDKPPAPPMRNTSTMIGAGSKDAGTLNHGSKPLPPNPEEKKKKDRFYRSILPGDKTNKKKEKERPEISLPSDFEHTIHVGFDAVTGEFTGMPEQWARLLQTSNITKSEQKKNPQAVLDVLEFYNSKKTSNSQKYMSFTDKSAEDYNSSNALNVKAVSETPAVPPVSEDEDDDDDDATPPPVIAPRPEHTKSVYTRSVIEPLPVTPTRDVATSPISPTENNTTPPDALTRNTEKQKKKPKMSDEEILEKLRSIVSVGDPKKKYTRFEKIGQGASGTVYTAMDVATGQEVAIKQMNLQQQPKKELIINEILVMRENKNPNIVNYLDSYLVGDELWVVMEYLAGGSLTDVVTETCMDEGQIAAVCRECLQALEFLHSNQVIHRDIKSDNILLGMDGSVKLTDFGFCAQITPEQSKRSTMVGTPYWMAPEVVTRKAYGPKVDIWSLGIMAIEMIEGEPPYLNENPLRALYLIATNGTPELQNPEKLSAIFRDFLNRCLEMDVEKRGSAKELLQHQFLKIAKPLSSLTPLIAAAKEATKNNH
T3 sequence (Q13177 whole entry, the tested form may be a part): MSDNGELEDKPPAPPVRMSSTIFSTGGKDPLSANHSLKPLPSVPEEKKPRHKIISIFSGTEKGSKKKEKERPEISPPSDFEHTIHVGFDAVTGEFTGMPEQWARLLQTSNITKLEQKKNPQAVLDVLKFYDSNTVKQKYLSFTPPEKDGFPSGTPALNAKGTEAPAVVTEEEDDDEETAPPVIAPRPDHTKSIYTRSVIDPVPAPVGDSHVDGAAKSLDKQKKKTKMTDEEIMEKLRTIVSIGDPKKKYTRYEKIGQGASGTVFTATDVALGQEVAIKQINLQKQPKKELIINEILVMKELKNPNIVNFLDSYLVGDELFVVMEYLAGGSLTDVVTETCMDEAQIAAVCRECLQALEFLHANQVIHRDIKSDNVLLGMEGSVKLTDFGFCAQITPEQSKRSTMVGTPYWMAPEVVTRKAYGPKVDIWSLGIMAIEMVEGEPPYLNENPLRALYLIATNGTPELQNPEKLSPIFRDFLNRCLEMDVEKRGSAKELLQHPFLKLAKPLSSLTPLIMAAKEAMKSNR
T4 sequence (Q9NQU5 whole entry, the tested form may be a part): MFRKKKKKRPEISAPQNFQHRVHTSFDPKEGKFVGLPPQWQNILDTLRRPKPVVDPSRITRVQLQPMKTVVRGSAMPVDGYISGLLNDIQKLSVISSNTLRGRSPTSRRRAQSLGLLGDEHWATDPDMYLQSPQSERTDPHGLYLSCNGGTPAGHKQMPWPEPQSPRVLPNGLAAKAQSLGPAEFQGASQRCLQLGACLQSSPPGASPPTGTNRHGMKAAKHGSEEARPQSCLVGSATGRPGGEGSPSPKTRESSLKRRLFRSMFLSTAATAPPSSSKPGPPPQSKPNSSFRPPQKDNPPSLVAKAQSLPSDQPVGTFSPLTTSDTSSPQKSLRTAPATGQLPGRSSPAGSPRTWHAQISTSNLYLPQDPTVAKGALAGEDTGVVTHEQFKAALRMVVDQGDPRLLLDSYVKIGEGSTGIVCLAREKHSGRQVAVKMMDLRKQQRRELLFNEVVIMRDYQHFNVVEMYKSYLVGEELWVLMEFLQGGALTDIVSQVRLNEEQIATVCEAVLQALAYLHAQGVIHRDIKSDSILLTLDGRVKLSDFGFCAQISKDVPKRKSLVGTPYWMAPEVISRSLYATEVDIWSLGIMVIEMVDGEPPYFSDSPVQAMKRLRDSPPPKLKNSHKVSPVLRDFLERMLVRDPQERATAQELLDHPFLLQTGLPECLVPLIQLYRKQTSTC
T2 sequence (Q9P286 whole entry, the tested form may be a part): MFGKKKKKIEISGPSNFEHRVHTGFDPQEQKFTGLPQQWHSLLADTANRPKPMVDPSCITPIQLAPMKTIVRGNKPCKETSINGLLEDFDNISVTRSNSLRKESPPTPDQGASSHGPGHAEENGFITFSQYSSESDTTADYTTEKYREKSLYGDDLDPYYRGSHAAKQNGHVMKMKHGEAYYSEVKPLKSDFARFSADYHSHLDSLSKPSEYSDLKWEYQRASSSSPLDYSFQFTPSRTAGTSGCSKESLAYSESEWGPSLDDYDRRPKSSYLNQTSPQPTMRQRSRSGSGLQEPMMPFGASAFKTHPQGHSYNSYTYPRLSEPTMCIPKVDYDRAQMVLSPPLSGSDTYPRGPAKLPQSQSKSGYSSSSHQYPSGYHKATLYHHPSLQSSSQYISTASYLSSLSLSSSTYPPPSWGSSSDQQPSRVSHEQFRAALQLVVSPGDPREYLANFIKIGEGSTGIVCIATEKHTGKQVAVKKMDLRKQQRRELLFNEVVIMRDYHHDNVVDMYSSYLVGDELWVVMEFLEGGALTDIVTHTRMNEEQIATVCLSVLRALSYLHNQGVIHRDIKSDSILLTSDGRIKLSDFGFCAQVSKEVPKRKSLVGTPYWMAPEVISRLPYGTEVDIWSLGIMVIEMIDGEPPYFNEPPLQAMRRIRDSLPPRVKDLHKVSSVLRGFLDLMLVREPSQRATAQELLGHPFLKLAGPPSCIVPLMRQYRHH

Row | pKd ([1]; PAK1, 25° C., 1 hour, 0.1% DMSO, read-out: Kd value, Test PAK Inhibitor Affinity Assay) | pKd [2] | pKd ([3]; PAK2, 25° C., 1 hour, 0.1% DMSO, read-out: Kd value, Test PAK Inhibitor Affinity Assay) | pKd [4] | pKd [5] | pKd [1] | pKd [3] | SMILES
1 | > 5.30 | ≤ 5.00 | ≤ 5.00 | ≤ 5.00 | ≤ 5.00 |  |  | CCOc1cc2ncc(C#N)c(Nc3ccc(F)c(Cl)c3)c2cc1NC(=O)/C=C/CN(C)C [EKB-569]
2 |  |  |  | > 5.30 |  | ≤ 5.00 | ≤ 5.00 | Nc1nc(Nc2ccc(S(N)(=O)=O)cc2)nn1C(=O)c1c(F)cccc1F [JNJ-7706621]
